Results from publication PMC12833861, “Organoplatinum(II) Type II Immunogenic Cell Death Inducers Target Protein Tyrosine Phosphatase 1B to Drive Immunogenicity” (Journal of the American Chemical Society, 2025).

Molecular target: T1, PTP1B (Homo sapiens, UniProt P18031)
T1 construct: gene PTPN1; recombinant PTP1B protein
T1 sequence (P18031 1-435): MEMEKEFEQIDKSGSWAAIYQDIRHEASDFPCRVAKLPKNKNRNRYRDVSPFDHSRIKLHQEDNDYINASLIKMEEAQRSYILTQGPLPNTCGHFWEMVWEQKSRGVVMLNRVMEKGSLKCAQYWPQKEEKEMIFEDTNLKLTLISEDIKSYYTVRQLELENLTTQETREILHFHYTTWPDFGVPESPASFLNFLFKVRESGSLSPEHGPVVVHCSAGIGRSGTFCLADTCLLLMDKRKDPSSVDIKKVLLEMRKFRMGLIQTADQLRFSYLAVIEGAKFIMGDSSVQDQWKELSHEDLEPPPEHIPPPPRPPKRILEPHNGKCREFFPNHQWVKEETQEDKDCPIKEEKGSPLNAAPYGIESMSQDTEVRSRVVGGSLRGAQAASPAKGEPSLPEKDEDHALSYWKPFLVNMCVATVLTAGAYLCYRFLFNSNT
Assay: p-nitrophenyl phosphate phosphatase assay with recombinant PTP1B; supported by CETSA in HCT116 lysates (ΔTm -4.[…] °C)
Assay type: biochemical

CCCCCC[n+]1ccn2[c]1[Pt-2]1([c]3ccccc3-c3cccc[n+]31)[c]1n(cc[n+]1CCCCCC)CCC2 [Pt-ER, PlatinER] gave an IC50 of 20.6 ± 1.8 µM.
